Experimental data as given in US6939850B2, “Altered human interleukin-1β convertase (ICE), NEDD-2, and C. elegans ced-3 polypeptides and uses therefor” (Massachusetts Institute of Technology, priority 1992, dated 2005).
Square brackets hold non-standard residues; d marks the D form. * marks the point of attachment. CH2Cl = ClC*

What was measured:
ICE = target: T1, ICE (Homo sapiens, UniProt P29466); conditions: protease activity of ICE; cited from earlier work
T1 sequence (P29466 120-297): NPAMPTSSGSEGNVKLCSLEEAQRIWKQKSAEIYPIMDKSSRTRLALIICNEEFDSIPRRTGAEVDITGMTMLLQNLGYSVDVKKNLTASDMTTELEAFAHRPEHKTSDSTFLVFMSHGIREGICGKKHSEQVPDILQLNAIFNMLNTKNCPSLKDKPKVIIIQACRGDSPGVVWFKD
T1 sequence (P29466 317-404): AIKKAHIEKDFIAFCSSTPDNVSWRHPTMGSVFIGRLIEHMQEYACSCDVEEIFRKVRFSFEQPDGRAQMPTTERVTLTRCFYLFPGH

lumbar motoneurons = assay: Naturally occurring lumbar motoneuron cell death in vivo; parameters: species or system chick; conditions: mean ±SD; for Pyknotic Lumbar Motoneurons on E8: 15 hours post treatment, single administration of 400 μg on E8; for Healthy Motoneurons (lumbar) on E9 / Pyknotic Motoneurons (lumbar) on E9: 24 hours post treatment
Method: In the first model, embryos were treated with a single dose of an ICE inhibitor or control protease inhibitor on embryonic day 8 (E8), the time of maximum naturally occurring motoneuron cell death (Hamburger et al., J. Morph. 88:49-92 (1951)). Embryos treated in vivo with the peptide inhibitors appeared to develop normally and there were no gross abnormalties. […] 24 hours after treatment there is a similar reduction in the number of pyknotic cells and a significant increase in the number of healthy motoneurons (Table 6B). […] The ability of ICE inhibitors to block the naturally occurring cell death of interdigital cells in the developing limb was also studied. These cells undergo PCD as a means of sculpting the digits in many vertebrates. When embryos were treated with either ICE inhibitor on embryonic days, E6 and E7, there was a substantial reduction in the number of pyknotic cells between the digits of the hindlimb (FIG. 14).
Peptides. Two peptide inhibitors of ICE, Acetyl-Tyr-Val-Ala-Asp-aldehyde (Ac-YVAD-CHO) and Acetyl-Tyr-Val-Ala-Asp-chloromethylketone (Ac-YVAD-CMK) and two control peptide inhibitors, Acetyl-Leu-Leu-Arg-aldehyde (Ac-LLR-CHO; Leupeptin) and n-tosyl-Lys-chloromethyl-ketone (Tos-Lys-CMK) were synthesized by Bachem Biosciences (King of Prussia, Pa.) and shown by thin layer chromatography and HPLC to be greater than 98% pure. […] Methods for administration of peptides to examine effects on naturally occurring motoneuron cell death in vivo. Although cell death of lumbar motoneurons occurs between E6 and E12, the peak period of death (i.e., the greatest number of pyknotic cells) occurs on E8 (Oppenheim et al., J Comp. Neurol. 177:87-112 (1978)). For these experiments, embryos were given a single administration of an agent on E8 0 hr and sacrificed 15 hours later. […] Ac-YVAD-CMK and Tos-Lys-CMK were administered in a solution of DMSO/BSA, whereas Ac-YVAD-CHO and leupeptin (Sigma) were in BSA alone. The solutions (50-100 μl) were dropped onto the highly vascularized chorioallantoic membrane through a window in the shell. The control groups included both DMSO and BSA or vehicle alone. Embryos were killed and staged by the Hamburger-Hamilton series (Hamburger and Hamilton, J. Morph. 88:49-92 (1951)). The thoraco-lumbar spinal cord was dissected, fixed in Camoys or Bouins fixative, processed for paraffin histology, serially sectioned (10-12 μm) and stained with either thionin or hematoxylin and eosin. Pyknotic motoneurons were identified based on criteria previously described (Chu-Wang and Oppenheim, J. Comp. Neurol. 177:33-58 (1978); Clarke and Oppenheim In Methods in Cell Biology Series; Cell Death; eds: Schwartz and Osborne. Academic Press. New York, N.Y. In press.) and were counted in every 10th or 20th section through the entire lumbar enlargement. The total number of pyknotic cells were then estimated by multiplying these values by 10 or 20. All cell counts were performed by individuals blinded with regard to drug treatment of the embryos. Methods for limb bud removal experiments. A unilateral limb bud removal was performed on E2 as described previously (Oppenheim et al., J. Comp. Neurol. 177:87-112 (1978)). Because induced cell death following limb removal begins on E5 (before that there is no difference in the number of motoneurons between the operated or unoperated sides) embryos were given one treatment of Ac-YVAD-CHO (40 μg) or BSA (control) at E5-0 hr and another at E5-12 hours (total peptide administered was 80 μg). Animals were killed at E6-0 hr. Methods were the same as described above except the section thickness was 6-8 μm (see Method for Administration of Peptides, above). Methods for limb bud interdigital regions. […]

cervical motoneurons = assay: Cervical motoneuron cell death in vivo; parameters: species or system chick; conditions: for Pyknotic Cervical Motoneurons on E4.5: mean ±SD
Description: The ability of the ICE inhibitors to block cell death in two classes of neurons whose naturally occurring death appears to be independent of target interaction was also studied. First, motoneurons in the cervical spinal cord undergo PCD between E4 and E5, with maximum levels occurring at E4.5.

chick spinal motoneurons = assay: Motoneuron culture deprived of muscle extract, survival; assay type: cell-based; conditions: without muscle extract, treated between 14 and 24 hours, counted after 3 days
Description: A tissue culture model system that allows isolation of a relatively pure population of motoneurons whose survival is dependent on muscle extract, a potent source of target-derived trophic support, was used to test the ability of peptide inhibitors of ICE to block motoneuron cell death (Milligan et al., J Neurobiology 25:1005-1016 (1994) and Block-Gallego et al., Development. 111:221-232 (1991)). The death of motoneurons deprived of trophic support in vitro requires new gene expression and occurs by apoptosis (Milligan et al., J. Neurobiology 25:1005-1016 (1994)). Motoneurons deprived of trophic support at the time of plating become irreversibly committed to undergo cell death after 16-18 hours (Milligan et al., J. Neurobiology 25:1005-1016 (1994)). […] When motoneurons are treated with peptide inhibitors in the absence of muscle extract for three days and subsequently supplemented on day three with muscle extract, they continue to survive, and by six days appear as healthy and differentiated as the motoneurons that were continuously supplied with muscle extract (FIGS. 12A, 12B, 15G). Thus, motoneurons rescued for 3 days by ICE inhibitors remain capable of responding to trophic factors present in muscle extract.
Methods for motoneuron cultures. […]

[1] = test system: undifferentiated neurons and precursor cells in the neural tube; assay: Cell death in the early neural tube in vivo; parameters: species or system chick

Compound	Ki (ICE) [nM]	Pyknotic Lumbar Motoneurons on E8 (lumbar motoneurons)	Healthy Motoneurons (lumbar) on E9 (lumbar motoneurons)	Pyknotic Motoneurons (lumbar) on E9 (lumbar motoneurons)	survival promoting effects on cervical motoneurons (cervical motoneurons; compared to control or Ac-LLR-CHO treated animals)	Pyknotic Cervical Motoneurons on E4.5 (cervical motoneurons)	motoneuron death (chick spinal motoneurons)	survival promoting effects on floorplate or dorsal spinal cord cells ([1]; compared to control animals)	Pyknotic Cells in the Early Neural Tube, Dorsal Spinal Cord ([1]; mean ±SD)	Pyknotic Cells in the Early Neural Tube, Floor Plate ([1]; mean ±SD)
Ac-Tyr-Val-Lys-Asp-CHO (Ac-YVKD-aldehyde; SMILES CC(=O)N[C@@H](Cc1ccc(O)cc1)C(=O)N[C@H](C(=O)N[C@@H](CCCCN)C(=O)N[C@H](C=O)CC(=O)O)C(C)C) [Inhibitor D]	3									
Ac-Y[dA]AD-aldehyde [Inhibitor C]	1500									
Acetyl-Tyr-Val-Ala-Asp-chloromethylketone (Ac-YVAD-CH2Cl) [Ac-YVAD-CMK]		216 ± 27	16,231 ± 755	200 ± 33	no survival promoting effects	26.7 ± 2.2	inhibitory effects on motoneuron death	no survival promoting effects	1.372 ± 0.235	0.872 ± 0.201
CC(=O)N[C@@H](CC(C)C)C(=O)N[C@@H](CC(C)C)C(=O)N[C@H](C=O)CCCNC(=N)N [Leupeptin, Acetyl-Leu-Leu-Arg-aldehyde]		310 ± 40	14,117 ± 971	297 ± 51		32.5 ± 7.9				
Cc1ccc(S(=O)(=O)NC(CCCCN)C(=O)CCl)cc1 (stereo not drawn) [Tos-Lys-CMK, n-tosyl-Lys-chloromethyl-ketone]		285 ± 31	13,257 ± 773	345 ± 39						
